ChEMBL document CHEMBL1208771, “Improvement of both plasmepsin inhibitory activity and antimalarial activity by 2-aminoethylamino substitution” (Bioorg Med Chem Lett, 2010)

Experiments:
Plasmepsin II = Plasmepsin II (Plasmodium falciparum, UniProt P46925); assay: Inhibition of Plasmodium falciparum plasmepsin-2
Plasmodium falciparum [1] = assay: Antiplasmodial activity against Plasmodium falciparum D6 infected in human erythrocytes by SYBR green I fluorescence assay; format: functional, organism-based
Plasmodium falciparum [2] = assay: Ratio of compound EC50 to chloroquine EC50 for Plasmodium falciparum D6 infected in human erythrocytes; format: functional

Chain of Plasmepsin II (P46925 whole entry): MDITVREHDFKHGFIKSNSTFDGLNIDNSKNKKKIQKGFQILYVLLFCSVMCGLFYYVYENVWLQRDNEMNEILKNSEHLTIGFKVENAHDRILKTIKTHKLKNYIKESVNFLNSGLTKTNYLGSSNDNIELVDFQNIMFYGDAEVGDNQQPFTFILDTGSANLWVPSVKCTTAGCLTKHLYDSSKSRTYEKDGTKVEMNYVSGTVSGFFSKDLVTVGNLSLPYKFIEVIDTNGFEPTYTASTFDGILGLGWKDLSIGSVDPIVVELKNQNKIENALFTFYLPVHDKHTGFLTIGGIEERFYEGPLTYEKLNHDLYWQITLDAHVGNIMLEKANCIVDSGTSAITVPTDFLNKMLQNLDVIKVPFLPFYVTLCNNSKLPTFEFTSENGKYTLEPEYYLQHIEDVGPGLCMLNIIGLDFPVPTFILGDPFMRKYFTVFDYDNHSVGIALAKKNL

| SMILES | Ki (Plasmepsin II) [nM] | EC50 (Plasmodium falciparum [1]) [nM] | Ratio EC50 (Plasmodium falciparum [2]) |
| --- | --- | --- | --- |
| Cc1cc(N(C)CCN(C)C)cc(C)c1OCC(=O)N[C@@H](Cc1ccccc1)[C@H](O)C(=O)N1CSC(C)(C)[C@H]1C(=O)N[C@H]1c2ccccc2C[C@H]1O | < 0.1 | 360 |  |
| Cc1cc(NCCN)cc(C)c1OCC(=O)N[C@@H](Cc1ccccc1)[C@H](O)C(=O)N1CSC(C)(C)[C@H]1C(=O)N[C@H]1c2ccccc2C[C@H]1O | 6.5 | 290 |  |
| CNCCNc1cc(C)c(OCC(=O)N[C@@H](Cc2ccccc2)[C@H](O)C(=O)N2CSC(C)(C)[C@H]2C(=O)N[C@H]2c3ccccc3C[C@H]2O)c(C)c1 | 9.1 | 1400 |  |
| Cc1cc(NCCN(C)C)cc(C)c1OCC(=O)N[C@@H](Cc1ccccc1)[C@H](O)C(=O)N1CSC(C)(C)[C@H]1C(=O)N[C@H]1c2ccccc2C[C@H]1O | 17 | 2000 |  |
| Cc1cc(N(C)CCN)cc(C)c1OCC(=O)N[C@@H](Cc1ccccc1)[C@H](O)C(=O)N1CSC(C)(C)[C@H]1C(=O)N[C@H]1c2ccccc2C[C@H]1O | 8.5 | 1400 |  |
| CNCCN(C)c1cc(C)c(OCC(=O)N[C@@H](Cc2ccccc2)[C@H](O)C(=O)N2CSC(C)(C)[C@H]2C(=O)N[C@H]2c3ccccc3C[C@H]2O)c(C)c1 | 1.2 | 190 | 10 |
| CCNCCNc1cc(C)c(OCC(=O)N[C@@H](Cc2ccccc2)[C@H](O)C(=O)N2CSC(C)(C)[C@H]2C(=O)N[C@H]2c3ccccc3C[C@H]2O)c(C)c1 | 0.68 | 220 |  |
| CCN(CC)CCNc1cc(C)c(OCC(=O)N[C@@H](Cc2ccccc2)[C@H](O)C(=O)N2CSC(C)(C)[C@H]2C(=O)N[C@H]2c3ccccc3C[C@H]2O)c(C)c1 | 5.1 | 1600 |  |
| CCN(CCN)c1cc(C)c(OCC(=O)N[C@@H](Cc2ccccc2)[C@H](O)C(=O)N2CSC(C)(C)[C@H]2C(=O)N[C@H]2c3ccccc3C[C@H]2O)c(C)c1 | < 0.1 | 460 |  |
| CCNCCN(CC)c1cc(C)c(OCC(=O)N[C@@H](Cc2ccccc2)[C@H](O)C(=O)N2CSC(C)(C)[C@H]2C(=O)N[C@H]2c3ccccc3C[C@H]2O)c(C)c1 | 4.2 | 790 |  |
| CCN(CC)CCN(CC)c1cc(C)c(OCC(=O)N[C@@H](Cc2ccccc2)[C@H](O)C(=O)N2CSC(C)(C)[C@H]2C(=O)N[C@H]2c3ccccc3C[C@H]2O)c(C)c1 | 10 | 1100 |  |
| Cc1cccc(C)c1OCC(=O)N[C@@H](Cc1ccccc1)[C@H](O)C(=O)N1CSC(C)(C)[C@H]1C(=O)N[C@H]1c2ccccc2C[C@H]1O |  | 5000 |  |
| Cc1cc(NCc2ccccn2)cc(C)c1OCC(=O)N[C@@H](Cc1ccccc1)[C@H](O)C(=O)N1CSC(C)(C)[C@H]1C(=O)N[C@H]1c2ccccc2C[C@H]1O |  | 560 |  |
| CCN(CC)CCCC(C)Nc1ccnc2cc(Cl)ccc12 (stereo unspecified) [CHLOROQUINE] |  | 20 |  |
